Where two headings read alike, the source gives them in different places.
Key:
NDM-1 = NDM-1 (Klebsiella pneumoniae, UniProt C7C422); assay: biochemical; type: biochemical; settings: fluorescence assay with CCF2-FA substrate; read-out: NDM-1 IC50
VIM-1 = VIM-1 (Pseudomonas aeruginosa (strain ATCC 15692 / DSM 22644 / CIP 104116 / JCM 14847 / LMG 12228 / 1C / PRS 101 / PAO1), UniProt A0A0F7KYQ8); assay: Enzyme activity: determination of IC50, fluorescence assay with CCF2-FA substrate (VIM-1); type: biochemical
IMP-1 = IMP-1 (Serratia marcescens, UniProt P52699); assay: biochemical; type: biochemical; settings: fluorescence assay with CCF2-FA substrate; read-out: IMP-1 IC50
[1] = tested on: Escherichia coli expressing NDM-1 (CLB30016); assay: Antibiotic potentiation activity: synergistic concentration (MITC95) with imipenem, OD600 growth; type: cell-based; settings: CLB30016 (NDM-1), 95% inhibition of bacterial growth
Procedure, shortened: (§1)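 Test compound was combined with 4 μg/ml imipenem (or optionally 1 μg/ml), or with no antibiotic, against saline-suspended colonies diluted 1:100 in 1.1×CAMHB. Strains were E. coli NDM-1, S. marcescens IMP-1 and K. pneumoniae VIM-1. Plates were incubated 22–24 h at 35 °C before absorbance (OD600) readout.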

[2] = tested on: Serratia marcescens expressing IMP-1 (CL5741); assay: as above; type: cell-based; settings: CL5741 (IMP-1), 95% inhibition of bacterial growth
Procedure, shortened: as §1

[3] = tested on: Klebsiella pneumoniae expressing VIM-1 (IHMA599644); assay: as above; type: cell-based; settings: IHMA599644 (VIM-1), 95% inhibition of bacterial growth
Procedure, shortened: as §1

[4] = fluorescence assay with CCF2-FA substrate, read-out: VIM-1 IC50
[5] = VIM-1 IC50, fluorescence assay with CCF2-FA substrate

IMP-1, sequence (P52699 whole entry, looked up): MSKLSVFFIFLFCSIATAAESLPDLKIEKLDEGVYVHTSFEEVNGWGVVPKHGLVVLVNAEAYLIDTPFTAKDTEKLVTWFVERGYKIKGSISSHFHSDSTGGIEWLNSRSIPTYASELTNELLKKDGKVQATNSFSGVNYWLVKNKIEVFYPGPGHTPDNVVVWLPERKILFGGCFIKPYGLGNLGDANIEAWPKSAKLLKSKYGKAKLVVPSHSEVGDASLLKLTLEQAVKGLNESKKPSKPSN
NDM-1, sequence (C7C422 whole entry, looked up, species assumed): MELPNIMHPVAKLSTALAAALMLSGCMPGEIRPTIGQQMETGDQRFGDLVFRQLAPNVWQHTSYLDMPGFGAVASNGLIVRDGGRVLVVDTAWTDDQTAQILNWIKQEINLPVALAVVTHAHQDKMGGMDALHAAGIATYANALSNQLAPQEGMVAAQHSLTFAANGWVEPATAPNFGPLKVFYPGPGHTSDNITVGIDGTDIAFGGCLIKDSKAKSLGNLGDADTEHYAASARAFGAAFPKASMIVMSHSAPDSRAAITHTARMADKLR

| Compound | IC50 (NDM-1) [nM] | IC50 (VIM-1; [4]) [nM] | IC50 (IMP-1) [nM] | Escherichia coli MITC95 [1] [µM] | Serratia marcescens MITC95 [2] [µM] | Klebsiella pneumoniae MITC95 [3] [µM] | IC50 (VIM-1; [5]) [nM] |
| --- | --- | --- | --- | --- | --- | --- | --- |
| NC1CCC(N2CC(c3ccc(-c4ccc(C(F)(F)F)c(S(N)(=O)=O)c4-c4nnn[nH]4)cc3)C2)C1 (stereo not drawn) [Example 808, 4′-[1-(3-aminocyclopentyl)azetidin-3-yl]-2-(1H-tetrazol-5-yl)-4-(trifluoromethyl)biphenyl-3-sulfonamide] | 3.57 | 25.3 | 8.44 | 1.563 | 3.125 | 25 | – |
| NC1CCCC(N2CC(c3ccc(-c4ccc(C(F)(F)F)c(S(N)(=O)=O)c4-c4nnn[nH]4)cc3)C2)C1 (stereo not drawn) [Example 810, 4′-[1-(3-aminocyclohexyl)azetidin-3-yl]-2-(1H-tetrazol-5-yl)-4-(trifluoromethyl)biphenyl-3-sulfonamide] | 7.06 | 26.8 | 8.92 | 3.125 | 6.25 | 100 | – |
| NC1CCCC1N1CC(c2ccc(-c3ccc(C(F)(F)F)c(S(N)(=O)=O)c3-c3nnn[nH]3)cc2)C1 (stereo not drawn) [Example 811, 4′-[1-(2-aminocyclopentyl)azetidin-3-yl]-2-(1H-tetrazol-5-yl)-4-(trifluoromethyl)biphenyl-3-sulfonamide] | 4.78 | – | 9.42 | 1.563 | 6.25 | 100 | 27.9 |
| NCCN1CC(c2ccc(-c3ccc(C(F)(F)F)c(S(N)(=O)=O)c3-c3nnn[nH]3)cc2)C1 [Example 812, 4′-[1-(2-aminoethyl)azetidin-3-yl]-2-(1H-tetrazol-5-yl)-4-(trifluoromethyl)biphenyl-3-sulfonamide] | 2.7 | 3.88 | 5.77 | 1.563 | 6.25 | 12.5 | – |
| NCC1CCC(N2CC(c3ccc(-c4ccc(C(F)(F)F)c(S(N)(=O)=O)c4-c4nnn[nH]4)cc3)C2)CC1 (stereo not drawn) [Example 813, 4′-{1-[4-(aminomethyl)cyclohexyl]azetidin-3-yl}-2-(1H-tetrazol-5-yl)-4-(trifluoromethyl)biphenyl-3-sulfonamide] | 6.27 | – | 9.86 | 6.25 | 6.25 | 100 | 20.6 |
| NCCC1CCC(N2CC(c3ccc(-c4ccc(C(F)(F)F)c(S(N)(=O)=O)c4-c4nnn[nH]4)cc3)C2)CC1 (stereo not drawn) [Example 814, 4′-{1-[4-(2-aminoethyl)cyclohexyl]azetidin-3-yl}-2-(1H-tetrazol-5-yl)-4-(trifluoromethyl)biphenyl-3-sulfonamide] | 8.08 | 22.5 | 12.5 | 6.25 | 6.25 | 100 | – |
| CNC1CC(N2CC(c3ccc(-c4ccc(C(F)(F)F)c(S(N)(=O)=O)c4-c4nnn[nH]4)cc3)C2)C1 (stereo not drawn) [Example 815, 4′-{1-[3-(methylamino)cyclobutyl]azetidin-3-yl}-2-(1H-tetrazol-5-yl)-4-(trifluoromethyl)biphenyl-3-sulfonamide] | 4.84 | 18 | 6.01 | 1.563 | 3.125 | 100 | – |
| NCCCN1CC(c2ccc(-c3ccc(C(F)(F)F)c(S(N)(=O)=O)c3-c3nnn[nH]3)cc2)C1 [Example 816, 4′-[1-(3-aminopropyl)azetidin-3-yl]-2-(1H-tetrazol-5-yl)-4-(trifluoromethyl)biphenyl-3-sulfonamide] | 6.62 | 13.5 | 16.3 | 1.563 | 6.25 | 12.5 | – |
